{"source": "paper PMC4641600", "about": "“Novel Activities of Select NSAID R-Enantiomers against Rac1 and Cdc42 GTPases” (PLoS ONE, 2015)", "key": {"[1]": {"target": "Rab7 (Homo sapiens, UniProt P51149)", "sequence (P51149 whole entry, species assumed)": "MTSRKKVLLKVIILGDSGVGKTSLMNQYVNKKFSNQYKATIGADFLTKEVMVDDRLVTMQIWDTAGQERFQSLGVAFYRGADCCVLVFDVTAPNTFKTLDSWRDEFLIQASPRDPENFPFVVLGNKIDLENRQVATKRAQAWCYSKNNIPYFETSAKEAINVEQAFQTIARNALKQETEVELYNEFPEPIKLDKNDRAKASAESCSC", "experiment": "Dose response, BODIPY-GTP binding", "conditions": "10 nM to 100 µM"}, "[2]": {"target": "H-Ras wt (Homo sapiens, UniProt P01112)", "experiment": "Dose response, BODIPY-GTP binding", "conditions": "10 nM to 100 µM", "method": "(§1) For multiplex analyses of small GTPases, 4 μm diameter glutathione-beads (GSH-beads) distinguished by seven different intensities of red fluorescence were used according to our previously described protocols. The GST-GTPases included the following eight Ras-related small GTPases: Rab2 wt, Rab7 wt, Cdc42 wt, Cdc42Q61L activating mutant, H-Ras wt, H-RasG12V, Rac1 wt and Rac1Q61L activating mutant. Briefly, Prestwick Chemical Library® compounds were tested at 10 μM compound and 1% DMSO final concentrations. After a 10 min pre-incubation with the compound BODIPY- FL-GTP (100 nM final) was added to each well and bead associated fluorescence was measured. Sample analysis was conducted with a HyperCyt® high throughput flow cytometry platform. Flow cytometric light scatter at 488 nm and fluorescence emission at 530 +/− 20 nm (FL1) and 665 +/− 10 nm (FL8) were collected on a Cyan ADP flow cytometer (Beckman Coulter, Fullerton, CA). IDLQuery software was used to determine the compound activity in each well. Gating based on forward scatter (FS) and side scatter (SS) parameters was used to identify singlet bead populations. Gating based on FL8 emission distinguishes the beads coated with different proteins, and the median FL1 fluorescence per bead population were calculated. A compound was considered a “potential active” if the change in BODIPY-FL-GTP binding differed greater than 20% from that measured in DMSO treated controls.\n(§2) Test compounds identified for follow-up after the primary screen were tested at dilutions ranging from 10 nM to 100 μM final concentration against individual GTPases in multiplex and single-plex assays. Compounds tested in dose response assays were serially diluted 1:3 a total of eight times from a starting concentration of 10 mM giving a 9-point dilution series in DMSO.\n(§3) bConfirmatory screens entailed dose response assays conducted in a multiplex format with eight GTPases tested as for primary screen. BODIPY-GTP-binding activity was\n(§4) measured in the presence of 10 nM to 100 µM of each of 11 test compounds (4 primary screen hits and 7 additional NSAIDs considered to have chemical similarity to GTPase\n(§5) active compounds). GST-GFP coated beads served as a control to detect non-specific dissociation or denaturation caused by compound addition–none of the tested NSAIDs had\n(§6) any effect on bead-GST-protein binding. EC50 values were determined using Prism to determine dose response fits as shown in Figure 1 of main text; fits have R2 > 0.9. Active\n(§7) compounds based on same definition used as in primary screena. […]"}, "[3]": {"target": "T1, human COX-2 (Homo sapiens, UniProt P35354)", "T1 construct": "purchased CEREP Laboratories (contract assay); host or cells: Sf-9", "T1 sequence (P35354 18-604)": "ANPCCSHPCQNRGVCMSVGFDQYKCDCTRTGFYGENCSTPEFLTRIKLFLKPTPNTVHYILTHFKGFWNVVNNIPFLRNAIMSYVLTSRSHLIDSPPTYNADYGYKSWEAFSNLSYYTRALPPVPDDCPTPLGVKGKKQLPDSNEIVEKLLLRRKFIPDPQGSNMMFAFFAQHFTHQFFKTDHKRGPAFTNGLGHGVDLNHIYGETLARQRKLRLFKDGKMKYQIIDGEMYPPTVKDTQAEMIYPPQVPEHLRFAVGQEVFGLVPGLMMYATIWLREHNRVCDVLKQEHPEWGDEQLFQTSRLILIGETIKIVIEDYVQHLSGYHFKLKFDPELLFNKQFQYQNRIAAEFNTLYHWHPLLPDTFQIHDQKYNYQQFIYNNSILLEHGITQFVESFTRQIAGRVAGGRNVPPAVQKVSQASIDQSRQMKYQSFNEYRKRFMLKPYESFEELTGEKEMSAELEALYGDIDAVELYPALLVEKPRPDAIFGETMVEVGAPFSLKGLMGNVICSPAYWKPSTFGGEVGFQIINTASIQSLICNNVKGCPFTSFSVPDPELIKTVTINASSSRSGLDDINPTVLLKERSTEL", "experiment": "Cyclooxygenase assay (CEREP), PGE2 formation", "assay_type": "biochemical", "conditions": "recombinant enzyme, 4 μM arachidonic acid"}, "[4]": {"target": "H-RasG12V (Homo sapiens, UniProt P01112, G12V)", "experiment": "Dose response, BODIPY-GTP binding", "conditions": "10 nM to 100 µM", "method": "as §1, §2, §3, §4, §5, §6, §7\n(§8) ‡A well-characterized selective Cdc42 inhibitor served as a positive control."}, "[5]": {"target": "T2, human COX-1 (Homo sapiens, UniProt P23219)", "T2 construct": "purchased CEREP Laboratories (contract assay); host or cells: Sf-9", "T2 sequence (P23219 24-599)": "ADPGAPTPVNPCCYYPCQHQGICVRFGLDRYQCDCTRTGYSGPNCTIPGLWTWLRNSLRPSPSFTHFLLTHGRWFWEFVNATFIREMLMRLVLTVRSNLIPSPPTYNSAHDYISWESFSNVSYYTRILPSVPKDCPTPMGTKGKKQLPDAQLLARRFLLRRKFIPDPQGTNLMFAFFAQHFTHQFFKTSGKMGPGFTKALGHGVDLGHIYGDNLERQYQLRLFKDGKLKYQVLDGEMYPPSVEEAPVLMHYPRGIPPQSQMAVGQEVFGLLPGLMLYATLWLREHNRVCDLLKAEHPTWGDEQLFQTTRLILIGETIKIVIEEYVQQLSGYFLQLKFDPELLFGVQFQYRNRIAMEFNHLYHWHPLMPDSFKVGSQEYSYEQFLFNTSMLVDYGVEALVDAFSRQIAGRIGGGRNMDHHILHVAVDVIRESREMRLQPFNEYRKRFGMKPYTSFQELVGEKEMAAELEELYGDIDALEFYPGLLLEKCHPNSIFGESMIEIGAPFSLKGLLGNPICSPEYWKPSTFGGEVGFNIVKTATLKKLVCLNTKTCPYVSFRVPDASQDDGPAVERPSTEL", "experiment": "Cyclooxygenase assay (CEREP), PGE2 formation", "assay_type": "biochemical", "conditions": "recombinant enzyme, 4 μM arachidonic acid"}, "[6]": {"test_system": "Cdc42", "conditions": "cited from earlier work"}, "[7]": {"target": "Rab2 (Homo sapiens, UniProt P61019)", "sequence (P61019 whole entry, species assumed)": "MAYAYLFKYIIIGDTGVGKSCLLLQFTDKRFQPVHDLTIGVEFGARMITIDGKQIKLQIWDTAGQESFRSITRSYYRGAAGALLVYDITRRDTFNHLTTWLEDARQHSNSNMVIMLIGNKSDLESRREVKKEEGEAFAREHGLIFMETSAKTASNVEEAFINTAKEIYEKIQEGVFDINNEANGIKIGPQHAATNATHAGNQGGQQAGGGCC", "experiment": "Dose response, BODIPY-GTP binding", "conditions": "10 nM to 100 µM"}, "[8]": {"target": "Cdc42 wt (Homo sapiens, UniProt P60953)", "sequence (P60953 whole entry)": "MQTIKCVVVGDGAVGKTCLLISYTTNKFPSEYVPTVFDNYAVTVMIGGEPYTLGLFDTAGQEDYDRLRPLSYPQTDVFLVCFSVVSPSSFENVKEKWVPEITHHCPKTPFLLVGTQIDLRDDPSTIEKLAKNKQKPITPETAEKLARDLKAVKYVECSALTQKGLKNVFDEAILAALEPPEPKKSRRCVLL", "experiment": "Dose response, BODIPY-GTP binding", "conditions": "10 nM to 100 µM"}, "[9]": {"target": "Rac1Q61L activating mutant (Homo sapiens, UniProt P63000, Q61L)", "experiment": "Dose response, BODIPY-GTP binding", "conditions": "10 nM to 100 µM"}, "[10]": {"target": "Rac1 wt (Homo sapiens, UniProt P63000)", "experiment": "Dose response, BODIPY-GTP binding", "conditions": "10 nM to 100 µM"}, "[11]": {"target": "Cdc42Q61L activating mutant (Homo sapiens, UniProt P60953, Q61L)", "sequence (P60953 whole entry Q61L)": "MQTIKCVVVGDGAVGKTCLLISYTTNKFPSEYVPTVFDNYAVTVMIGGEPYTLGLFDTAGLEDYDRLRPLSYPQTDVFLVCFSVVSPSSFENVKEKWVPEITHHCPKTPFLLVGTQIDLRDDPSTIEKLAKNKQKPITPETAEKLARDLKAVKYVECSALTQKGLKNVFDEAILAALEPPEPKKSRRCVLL", "experiment": "Dose response, BODIPY-GTP binding", "conditions": "10 nM to 100 µM; read-out: Cdc42 (act) EC50"}, "[12]": {"test_system": "migration Rac1/Cdc42 dependent", "set-up": "method as in ref 28 (a number printed in a supplementary file, which may have a reference list of its own: not looked up in the article's list)", "conditions": "read-out: IC50 migration Rac1/Cdc42 dependent (est); cited from earlier work"}, "[13]": {"target": "T3, Rac1 (Mus musculus, UniProt P63001)", "T3 construct": "endogenous in cells; host or cells: Swiss 3T3", "experiment": "GLISA, Swiss 3T3 cells", "assay_type": "cell-based", "conditions": "for EGF-mediated Rac1 activation: 300 μM"}, "[14]": {"test_system": "COX-1", "conditions": "IC50 values not calculated; thromboxane B2, collagen-stimulated human platelets; cited from earlier work"}, "[15]": {"test_system": "OvCa429 cells", "conditions": "300 μM, relative to 6-MNA"}, "[16]": {"test_system": "Tiam1 membrane localization", "experiment": "Tiam1 immunolocalization, OvCa433 cells", "assay_type": "cell-based, human", "method": "OvCa433 were plated on coverslips, treated with 300 μM NSAIDs for 1 h, fixed with 3% paraformaldehyde and immunostained for Rac1 or Tiam1. Actin was visualized with rhodamine phalloidin from Invitrogen (F432). Cells were imaged on a Zeiss LSM510 using a 63x objective and quantified using Image J.\nRac1 and Tiam1 antibodies were confirmed in our hands to recognize single protein species of the predicted molecular weight by immunoblot."}, "[17]": {"test_system": "Rab2 wt, Rab7 wt, Cdc42 wt, Cdc42Q61L, H-Ras wt, H-RasG12V, Rac1 wt and Rac1Q61L", "experiment": "Primary multiplex screen, BODIPY-FL-GTP binding on bead-bound GTPases (flow cytometry)"}, "[18]": {"test_system": "Ras-related GTPases", "experiment": "Confirmatory dose response assays on eight Ras-related GTPases", "assay_type": "binding", "method": "as §1, §2, §3, §4, §5, §6, §7, §8"}, "[19]": {"test_system": "Rac1 membrane localization", "experiment": "Rac1 immunolocalization, OvCa433 cells", "assay_type": "cell-based, human"}, "[20]": {"test_system": "Rac1 and Tiam1 protein levels", "experiment": "Immunoblot of protein levels", "assay_type": "cell-based, human", "method": "Cells were stimulated with EGF at a final concentration of 1 nM for 10 min. Cells were lysed in a RIPA buffer consisting of 50 mM Tris pH 7.4, 1% NP-40, 0.25% sodium deoxycholate, 150 mM NaCl, 1 mM EDTA, 1 mM PMSF, 1 mM sodium vanadate, 10 mM sodium fluoride, 1 μg/mL each of pepstatin, aprotinin and leupeptin, 10 mM sodium pyrophosphate and 10 mM beta-glycerophosphate.\nN = 3. See also Figure D in S1 File for time dependent loss of Rac1 membrane localization. N = 3 (B) Quantification of image intensity using Image J of 3 representative confocal images as shown in panel (A) containing 20–30 cells/field normalized to actin and untreated controls. (C) Western blot analyses of lysates from cells treated with 300 μM compound as indicated for 24 h as compared to untreated controls. […] Blots were probed for Tiam1 (200 kDa), GAPDH (37 kDa), Rac1 (20 kDa), as a loading control. (D) Quantification of image intensity using Image J. Each marker was normalized to GAPDH and untreated controls. N = 3."}, "[21]": {"test_system": "OvCa433 cells", "conditions": "0-300 µM, 48 h"}, "[22]": {"conditions": "immunofluorescence quantified using ImageJ"}}, "data": [{"smiles": "COc1ccc(C2CC(c3ccccc3)=NN2c2ccc(S(N)(=O)=O)cc2)cc1", "note": "(centres unmarked) [CID2950007/ML141]", "values": [{"measurement": "Rab7 EC50", "setting": "[1]", "value": "inactive"}, {"measurement": "H-Ras wt EC50", "setting": "[2]", "value": "inactive"}, {"measurement": "IC50", "setting": "[3]", "value": 580, "unit": "nM"}, {"measurement": "H-Ras (act) EC50", "setting": "[4]", "value": "inactive"}, {"measurement": "IC50", "setting": "[5]", "value": 1800, "unit": "nM"}, {"measurement": "IC50", "setting": "[6]", "value": "2100 to 2600", "unit": "nM"}, {"measurement": "Rab2 EC50", "setting": "[7]", "value": "inactive"}, {"measurement": "EC50", "setting": "[8]", "value": 2600, "unit": "nM"}, {"measurement": "Rac1 (act) EC50", "setting": "[9]", "value": "inactive"}, {"measurement": "Rac1 wt EC50", "setting": "[10]", "value": "inactive"}, {"measurement": "EC50", "setting": "[11]", "value": 5400, "unit": "nM"}, {"measurement": "IC50", "setting": "[12]", "value": "~10000", "unit": "nM"}]}, {"smiles": "COc1ccc2cc([C@@H](C)C(=O)O)ccc2c1", "note": "[R-naproxen]", "values": [{"measurement": "EGF-mediated Rac1 activation", "setting": "[13]; 15 min pretreatment", "value": "significantly inhibited"}, {"measurement": "EGF-mediated Rac1 activation", "setting": "[13]; 1 h pretreatment", "value": "reduced activation to basal unstimulated levels"}, {"measurement": "inhibition at 300 µM", "setting": "[13]; Swiss-3T3, at 300 µM", "value": 100, "unit": "%"}, {"measurement": "Rab7 EC50", "setting": "[1]", "value": "inactive"}, {"measurement": "H-Ras wt EC50", "setting": "[2]", "value": "inactive"}, {"measurement": "COX-1 Previously Published", "setting": "[14]", "value": "R>S"}, {"measurement": "invadopodia formation", "setting": "[15]", "value": "inhibited"}, {"measurement": "H-Ras (act) EC50", "setting": "[4]", "value": "inactive"}, {"measurement": "Tiam1 membrane localization", "setting": "[16]; 300 μM", "value": "substantially reduced"}, {"measurement": "Tiam1 GEF PM localiz.", "setting": "[16]; [22]", "value": 32, "unit": "%"}, {"measurement": "primary screen outcome", "setting": "[17]; 10 μM compound", "value": "positive and hit"}, {"measurement": "Primary Screen Hit", "setting": "[17]; single dose 10 µM, change in BODIPY-GTP binding on any one GTPase", "value": "Active"}, {"measurement": "activity against the GTPases in confirmatory dose response assays (words)", "setting": "[18]; 10 nM to 100 µM", "value": "varying activity levels"}, {"measurement": "EC50", "setting": "[18]; additional confirmatory dose response assays, different conditions", "value": "3000 to 18000", "unit": "nM"}, {"measurement": "Rab2 EC50", "setting": "[7]", "value": "inactive"}, {"measurement": "Rac1 membrane localization", "setting": "[19]; 300 μM", "value": "substantially reduced"}, {"measurement": "Rac PM Localiz.", "setting": "[19]; [22]", "value": 34, "unit": "%"}, {"measurement": "total Rac1 or Tiam1 protein levels", "setting": "[20]; 300 μM, 24 h, immunoblot", "value": "did not alter"}, {"measurement": "Rac protein expression", "setting": "[20]; immunoblot analysis", "value": "No change"}, {"measurement": "cytotoxicity", "setting": "[21]", "value": "not cytotoxic"}]}]}
